Assay results taken from patent publication US7910622B2, “Modulation of bacterial quorum sensing with synthetic ligands” (Wisconsin Alumni Research Foundation, priority 2007, dated 2011).
pIC50: −log10 of the molar value. Read-outs that look alike come from different tables or passages of the source.

Assays:
Assay in all cases: cell-based
[1] = molecular target: T1, TraR (Agrobacterium tumefaciens, UniProt P33905); details: for activation at 10 µM: read-out: A. tumefaciens-TraR Activation [%]; for inhibition at 10 µM: read-out: A. tumefaciens-TraR Inhibition [%], 10 μM synthetic ligand against 100 nM OOHL; for inhibition at 10 µM / A. tumefaciens-TraR Inhibition [%] / A. tumefaciens-TraR Activation [%]: A. tumefaciens WCF47 (pCF372), normalized to OOHL; for A. tumefaciens-TraR Inhibition [%]: 10 μM synthetic ligand against 100 nM OOHL; for A. tumefaciens-TraR Activation [%]: 10 μM ligand
T1 construct: These strains lack their AHL synthase (I) genes, but retain their native R genes; endogenous in cells; host or cells: A. tumefaciens WCF47 (Δ-traI) with PtraI-lacZ plasmid pCF372

[2] = molecular target: T2, LasR (Pseudomonas aeruginosa, UniProt P25084); format: cell-based; details: for inhibition at 5 µM: read-out: E. coli-LasR Inhibition [%], 5 μM synthetic ligand against 7.5 nM OdDHL; for inhibition at 5 µM / E. coli-LasR Inhibition [%]: E. coli DH5α (pJN105L pSC11), normalized to OdDHL; for E. coli-LasR Inhibition [%]: 5 μM synthetic ligand against 7.5 nM OdDHL
T2 construct: expressed in transfected cells; host or cells: E. coli DH5α (pJN105L pSC11), arabinose-induced
In short: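 E. coli DH5α carrying pJN105L/pSC11 grown to OD600 0.3, LasR expression induced with arabinose (4 mg/mL), then incubated with AHLs at 37 °C to OD600 0.45. LasR activity read by β-galactosidase reporter assay; IC50/EC50 from sigmoidal dose-response fits.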

[3] = molecular target: T3, LuxR (Aliivibrio fischeri, UniProt P35327); format: cell-based, Vibrio fischeri; details: for pIC50: LuxR IC50, determined against 5 μM OHHL; for inhibition at 5 µM: read-out: V. fischeri-LuxR Inhibition [%], 5 μM synthetic ligand against 5 μM OHHL; for inhibition at 5 µM / V. fischeri-LuxR Inhibition [%]: V. fischeri ES114 (Δ-luxI), normalized to OHHL; for V. fischeri-LuxR Inhibition [%]: 5 μM synthetic ligand against 5 μM OHHL
T3 construct: a Δ-luxI derivative of V. fischeri ES114, in which the native lux operon behaves as the bioluminescent reporter; endogenous in cells; host or cells: V. fischeri ES114 (Δ-luxI)
In short: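 Whole-cell luminescence reporter in V. fischeri ES114 (WT, Δ-luxI or Δ-luxR) or E. coli, overnight cultures diluted 1:10 and grown with compound at RT (E. coli 30° C) to OD600 0.35-0.4 (4-6 h). Luminescence normalized to cell density, triplicates; EC50/IC50 from sigmoidal fit.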

[4] = determined against 7.5 nM OdDHL, read-out: LasR IC50

T1 sequence (P33905 whole entry): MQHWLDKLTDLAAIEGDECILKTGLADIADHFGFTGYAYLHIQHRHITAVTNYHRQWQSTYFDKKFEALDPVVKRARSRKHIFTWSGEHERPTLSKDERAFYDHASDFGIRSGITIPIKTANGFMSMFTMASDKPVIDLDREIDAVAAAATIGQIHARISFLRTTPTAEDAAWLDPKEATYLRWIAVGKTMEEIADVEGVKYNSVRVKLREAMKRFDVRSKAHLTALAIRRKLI
T2 sequence (P25084 whole entry): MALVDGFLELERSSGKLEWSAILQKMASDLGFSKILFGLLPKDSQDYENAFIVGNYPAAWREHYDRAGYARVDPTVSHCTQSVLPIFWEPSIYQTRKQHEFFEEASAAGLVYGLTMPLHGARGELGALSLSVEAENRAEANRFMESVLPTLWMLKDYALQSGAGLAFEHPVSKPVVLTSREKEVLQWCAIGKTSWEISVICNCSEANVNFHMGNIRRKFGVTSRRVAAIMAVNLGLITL
T3 sequence (P35327 whole entry): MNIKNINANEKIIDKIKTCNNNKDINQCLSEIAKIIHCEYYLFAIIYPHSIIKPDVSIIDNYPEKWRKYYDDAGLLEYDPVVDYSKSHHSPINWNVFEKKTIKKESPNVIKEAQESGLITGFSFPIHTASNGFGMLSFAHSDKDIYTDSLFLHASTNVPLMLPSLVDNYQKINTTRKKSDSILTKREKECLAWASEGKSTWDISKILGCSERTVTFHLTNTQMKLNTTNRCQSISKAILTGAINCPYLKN

## O=C(Cc1ccc(-c2ccccc2)cc1)NC1CCOC1=O (centres unmarked) [B21, 4-phenyl PHL]
[1]
  activation at 10 µM: 0%
  inhibition at 10 µM: ~70%
[2]
  inhibition at 5 µM: 20%
[3]
  pIC50: 5.97
  inhibition at 5 µM: ~70%

## O=C(Cc1ccc(Br)cc1)N[C@H]1CCOC1=O [A17, 4-bromo-phenylacetanoyl HL, reference compound]
[1]
  pIC50: 5.33
  A. tumefaciens-TraR Inhibition [%]: 88%
  activation at 10 µM: 1%
[2]
  pIC50: 5.41
  E. coli-LasR Inhibition [%]: 28%
[3]
  V. fischeri-LuxR Inhibition [%]: 79%

## O=C(Cc1ccc(Br)cc1)N[C@H]1CCOC1=O [compound 8, N-(4-bromo-phenylacetanoyl)-L-homoserine lactone, reference compound]
[1]
  A. tumefaciens-TraR Activation [%]: 1%
  inhibition at 10 µM: ~90%
[1]; read-out: TraR IC50, determined against 100 nM OOHL
  pIC50: 5.33
[2]
  inhibition at 5 µM: ~25%
[2]; read-out: LasR IC50, determined against 7.5 nM OdDHL
  pIC50: 5.41
[3]
  pIC50: 5.43
  inhibition at 5 µM: ~76%

## O=C(CCCc1c[nH]c2ccccc12)N[C@H]1CCOC1=O [A18, indole AHL, reference compound]
[1]
  A. tumefaciens-TraR Activation [%]: 0%
  A. tumefaciens-TraR Inhibition [%]: 35%
[2]
  E. coli-LasR Inhibition [%]: 36%
[2]; [4]
  pIC50: 5.08
[3]
  V. fischeri-LuxR Inhibition [%]: 72%

## 3-nitro PHL [B17]
[1]
  A. tumefaciens-TraR Activation [%]: 0%
  A. tumefaciens-TraR Inhibition [%]: 46%
[2]; against 7.5 nM OdDHL, dose response curve did not reach 100% inhibition
  LasR: concentration at which the compound elicits its maximal inhibition (value in parentheses): 2.0 µM
[2]; [4]
  pIC50: 6.21
[3]
  V. fischeri-LuxR Inhibition [%]: −15%

## O=C(Cc1ccc(-c2ccccc2)cc1)N[C@H]1CCOC1=O [C18, 4-phenyl PHL]
[1]; A. tumefaciens-TraR, Library C primary agonism screen
  Activation (%): 0%
[1]; A. tumefaciens-TraR, Library C primary antagonism screen
  Inhibition (%): 67%
[1]
  activation at 10 µM: 0%
  inhibition at 10 µM: ~70%
[2]
  inhibition at 5 µM: 20%
[3]
  pIC50: 5.97
[3]; V. fischeri-LuxR, Library C primary antagonism screen
  Inhibition (%): 79%
